Data from US20250099420A1, “SMALL MOLECULE MODULATORS OF GPR139 COMPLEX” (University of Florida Research Foundation, Incorporated, priority 2022, published 2025).

How the values were obtained:
parental HEK cells [1] = test: HEK parental Antagonist Counterscreen Assay (non-transfected cells, acetylcholine control); assay type: cell-based; conditions: for EC50: Homo sapiens, HEK293, acetylcholine as control, scientific notation, molarity
GPR139 [2] = biological target: T1, GPR139 (Homo sapiens, UniProt Q6DWJ6); test: GPR139 Agonist titration / agonist counterscreen assay (calcium detection, HEK-GPR139 cells); assay type: cell-based; set-up: expressed in transfected cells; host or cells: HEK Aequorin cells, Maxcyte transient transfection; conditions: for Averaged Max % Response (±St. Dev.): activity relative to known control
T1 sequence (Q6DWJ6 1-353): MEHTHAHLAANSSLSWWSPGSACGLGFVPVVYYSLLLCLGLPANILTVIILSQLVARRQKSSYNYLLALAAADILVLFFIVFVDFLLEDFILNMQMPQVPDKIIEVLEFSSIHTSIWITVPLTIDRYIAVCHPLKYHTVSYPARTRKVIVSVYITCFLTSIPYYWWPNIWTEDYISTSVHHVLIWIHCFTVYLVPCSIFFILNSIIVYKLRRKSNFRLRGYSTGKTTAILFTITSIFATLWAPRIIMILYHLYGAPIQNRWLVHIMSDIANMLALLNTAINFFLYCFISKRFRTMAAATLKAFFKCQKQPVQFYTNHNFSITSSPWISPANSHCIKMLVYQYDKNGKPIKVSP
Protocol: GPR activity was assessed using a calcium detection assay. […] Negative control samples were treated with DMSO. […] Intracellular calcium was measured using Calcium 5.

GPR139 [3] = biological target: T1, GPR139; test: GPR139 Antagonist titration assay (calcium detection, HEK-GPR139 cells, vs EC80 of S-JNJ-63533054); conditions: for GPR139 Antagonist Activity Averaged Max % Response (±St. Dev.): activity relative to known control; for GPR139 Antagonist Activity Lipophilic Efficiency (logD): based on logD; for GPR139 Antagonist Activity Lipophilic Efficiency (logP): based on logP; for GPR139 Antagonist Activity Hill Slope: fitted dose-response curve
Protocol: GPR activity was assessed using a calcium detection assay. GPR139 agonists stimulate an increase in intracellular calcium in HEK-GPR139 cells. Agonists increase the release of intracellular calcium, while antagonists decrease the release of intracellular calcium, as compared to an EC80 stimulation of the know agonist S-JNJ-63533054. The positive control for the agonist mode was cells treated with EC100 of known agonist S-JNJ-63533054. Negative control samples were treated with DMSO. The antagonist high control in cells was EC80 of S-JNJ-63533054+IC100 S-JNJ-3792165, while cells were treated with EC80 of S-JNJ-63533054+DMSO for the low control. Intracellular calcium was measured using Calcium 5.
HEK cells were transfected the DNA encoding GPR139 and incubated for 24 hours. 3000 cells/well in 3 μL HEPES and 1% DMSO were seeded into 1536-well plates. 3 μL Calcium 5 was then added to each well and cells were incubated for 60 min. at 37° C. in 5% CO2 and 95% relative humidity. Cells were pretreated with 50 nL DMSO (5 min. at room temperature in the dark) to stabilize response and desensitize cells to DMSO. A 5 second basal read was recorded and compounds in 30 nL were added to the cells, followed by a 150 second read.
B. Antagonist Mode: The “High Control” represented wells containing cells with GPR139+Antagonist IC100+Agonist EC80. “Low Control” represented wells containing cells with GPR139 with EC100 Agonist. “0% control” and sample field represented wells containing cells with GPR139 with EC80 Agonist with DMSO or compounds. The Z′ and S:B for this assay were calculated using the High Control and Low Control wells.
The HEK parental counterscreen utilized the same cells but not transfected with the plasmid. Acetylcholine was used in place of GPR139 agonist as the control compound. The cells were plated overnight, similar to the HEK antagonist counterscreen protocol.
The GPR139 Agonist and Antagonist titration assays employed the same reagents, protocols, and detection systems as the primary assays, but tested each as 10 point dose response starting at 676 nM concentration in triplicate with 1:3 dilutions. The HEK parental counterscreens utilized the same cells but not transfected with the plasmid. Acetylcholine was used in place of GPR139 agonist as the control compound. The cells were plated overnight, similar to the HEK antagonist counterscreen protocol.
For each test compound, percent activation was plotted against compound concentration. A four parameter equation describing a sigmoidal dose-response curve was then fitted with adjustable baseline using Assay Explorer software (Symyx Technologies Inc.).

parental HEK cells [4] = test: HEK parental Agonist Counterscreen Assay (non-transfected cells); assay type: cell-based; conditions: for Averaged Max % Response (±St. Dev.): activity relative to known control
Description: The high control for the agonist counterscreen was Forskolin not acetylcholine.

[5] = agonist counterscreen of the antagonists
[6] = agonist counterscreen of the antagonists, scientific notation, molarity, read-out: GRP139 Agonist activity EC50
[7] = Homo sapiens, HEK293, HEK Agonist Activity, parental non-transfected HEK cells
[8] = GPR139 Agonist Activity, based on logD
[9] = GPR139 Agonist Activity, based on logP
[10] = GPR139 Agonist Activity, fitted dose-response curve
[11] = GPR139 Agonist Activity, ligand efficiency
[12] = GPR139 Agonist Activity, values printed in E-notation without unit, read-out: EC50
[13] = Homo sapiens, HEK293, HEK Agonist Activity section of Table 4 (parental HEK counterscreen)
[14] = GPR139 Agonist Activity, HEK-GPR139 cells, read-out: EC50
[15] = HEK Agonist Activity section of Table 4 (parental HEK counterscreen)

Row | SMILES | Averaged Max % Response (±St. Dev.) (GPR139 [2]; GPR139 Agonist Activity) | Lipophilic Efficiency (logD) (GPR139 [2]; [8]) | Lipophilic Efficiency (logP) (GPR139 [2]; [9]) | Hill Slope (GPR139 [2]; [10]) | Efficiency Ligand (GPR139 [2]; [11]) | EC50 (GPR139 [2]; [12]) | Lipophilic Efficiency (logD) (parental HEK cells [4]; HEK Agonist Activity section) | Lipophilic Efficiency (logP) (parental HEK cells [4]; HEK Agonist Activity section) | Averaged Max % Response (±St. Dev.) (parental HEK cells [4]; HEK Agonist Activity section) | EC50 (parental HEK cells [4]; [13]) | Efficiency Ligand (GPR139 [2]; GPR139 Agonist Activity) | Hill Slope (GPR139 [2]; GPR139 Agonist Activity) | Lipophilic Efficiency (logD) (GPR139 [2]; GPR139 Agonist Activity) | Lipophilic Efficiency (logP) (GPR139 [2]; GPR139 Agonist Activity) | EC50 (GPR139 [2]; [14]) | other results
1 | CC1=NN(Cc2ccc(Cl)cc2Cl)C(=O)C1 [SR-01000043246] |  |  |  |  |  |  |  |  |  |  |  |  |  |  |  | HEK antagonist activity Averaged Max % Response (±St. Dev.) (parental HEK cells [1]): 6.06 ± 11.65%; EC50 (parental HEK cells [1]): > 15.3 µM; GRP139 Agonist activity Averaged Max % Response (±St. Dev.) (GPR139 [2]; [5]): 21.98 ± 2.69%; EC50 (GPR139 [2]; [6]): > 15.3 µM; EC50 (GPR139 [3]): 3.9 µM; GPR139 Antagonist Activity Ligand Efficiency (GPR139 [3]): 0.47; GPR139 Antagonist Activity Averaged Max % Response (±St. Dev.) (GPR139 [3]): 80.83 ± 4.99%; GPR139 Antagonist Activity Lipophilic Efficiency (logD) (GPR139 [3]): 2.61; GPR139 Antagonist Activity Lipophilic Efficiency (logP) (GPR139 [3]): 2.61; GPR139 Antagonist Activity Hill Slope (GPR139 [3]): 1.01
2 | COc1ccc(OC)c(NC2=C(Cl)C(=O)N(c3ccccc3C)C2=O)c1 [SR-01000228964] |  |  |  |  |  |  |  |  |  |  |  |  |  |  |  | HEK antagonist activity Averaged Max % Response (±St. Dev.) (parental HEK cells [1]): 24.51 ± 4.86%; EC50 (parental HEK cells [1]): > 14.1 µM; GRP139 Agonist activity Averaged Max % Response (±St. Dev.) (GPR139 [2]; [5]): −2.6E+0 ± 5.18 ^ %; EC50 (GPR139 [2]; [6]): > 14.1 µM; EC50 (GPR139 [3]): 2.9 µM; GPR139 Antagonist Activity Ligand Efficiency (GPR139 [3]): 0.30; GPR139 Antagonist Activity Averaged Max % Response (±St. Dev.) (GPR139 [3]): 82.24 ± 3.16%; GPR139 Antagonist Activity Lipophilic Efficiency (logD) (GPR139 [3]): 2.79; GPR139 Antagonist Activity Lipophilic Efficiency (logP) (GPR139 [3]): 2.79; GPR139 Antagonist Activity Hill Slope (GPR139 [3]): 1.53
3 | O=C(CCC(=O)OCc1ccc(Br)cc1)Nc1ccc(F)cc1 [SR-01000259336] |  |  |  |  |  |  |  |  |  |  |  |  |  |  |  | HEK antagonist activity Averaged Max % Response (±St. Dev.) (parental HEK cells [1]): 26.21 ± 5.54%; EC50 (parental HEK cells [1]): > 14.1 µM; GRP139 Agonist activity Averaged Max % Response (±St. Dev.) (GPR139 [2]; [5]): 6.87 ± 7.17%; EC50 (GPR139 [2]; [6]): > 14.1 µM; EC50 (GPR139 [3]): 3.7 µM; GPR139 Antagonist Activity Ligand Efficiency (GPR139 [3]): 0.33; GPR139 Antagonist Activity Averaged Max % Response (±St. Dev.) (GPR139 [3]): 90.45 ± 2.75%; GPR139 Antagonist Activity Lipophilic Efficiency (logD) (GPR139 [3]): 1.62; GPR139 Antagonist Activity Lipophilic Efficiency (logP) (GPR139 [3]): 1.62; GPR139 Antagonist Activity Hill Slope (GPR139 [3]): 1.05
4 | Cc1cccc(NC(=O)NCCc2ccc3c(c2)CCCN3C)c1 [SR-01000923247] | 95.66 ± 12.25% | 3.21 | 3.21 | 0.45 | 0.43 | 0.0371 µM |  |  |  |  |  |  |  |  |  | Lipophilic Efficiency (logD) (parental HEK cells [4]; HEK Agonist Activity): 0.63; Lipophilic Efficiency (logP) (parental HEK cells [4]; HEK Agonist Activity): 0.63; Averaged Max % Response (±St. Dev.) (parental HEK cells [4]; HEK Agonist Activity): 20.62 ± 4.90%; EC50 (parental HEK cells [4]; [7]): > 14.1 µM
5 | COc1cc(NC(=O)NCCc2ccc3c(c2)CCCN3C)cc(OC)c1 [SR-01000923249] | 93.59 ± 4.95% | 3.81 | 3.81 | 0.82 | 0.37 | 0.0629 µM | 1.46 | 1.46 | 25.04 ± 3.96% | > 14.1 µM |  |  |  |  |  | 
6 | CCN1CCCc2cc(CCNC(=O)Nc3ccccc3)ccc21 [SR-01000923250] | 67.60 ± 3.63% |  |  |  |  |  | 0.79 | 0.79 | −2.96 ± 8.90% | > 14.1 µM | 0.35 | 0.64 | 1.87 | 1.86 | 1.2 µM | 
7 | CCCC(=O)C1CCC(C(=O)CC2CCC(c3ccc(C(C)O)cc3)C2=O)CC1 (centres unmarked) [SR-01000924775] | 69.93 ± 11.99% |  |  |  |  |  | 3.42 | 3.42 | 10.92 ± 3.68% | > 14.1 µM | 0.31 | 0.79 | 4.98 | 4.98 | 0.387 µM | 
8 | Cc1onc(-c2ccccc2Cl)c1C(=O)N1CCC(Cn2ccnc2C)CC1 [SR-01000925002] | 86.62 ± 3.28% |  |  |  |  |  | 2.12 | 1.88 | 17.46 ± 3.54% |  | 0.31 | 0.51 | 3.41 | 3.17 | 0.727 µM | EC50 (parental HEK cells [4]; [15]): > 14.1 µM
9 | O=C(Cn1ccc2ccccc21)NC1CCN(Cc2ccccc2)CC1 [SR-01000925700] | 83.76 ± 7.63% |  |  |  |  |  | 2.90 | 1.91 | 10.33 ± 2.07% | > 14.1 µM | 0.32 | 0.44 | 4.08 | 3.09 | 0.931 µM | 
10 | O=C(Cn1cnc2ccccc21)NCCCn1ccc2ccccc21 [SR-01000926263] | 84.49 ± 4.10% | 4.34 | 4.34 | 1.10 | 0.39 | 0.127 µM | 2.29 | 2.29 | 12.91 ± 4.81% | > 14.1 µM |  |  |  |  |  | 
11 | O=C(Cn1ccc2ccccc21)NCCCC(=O)Nc1cccc2cccnc12 [SR-01000926510] | 89.57 ± 9.18% |  |  |  |  |  | 2.07 | 2.07 | 9.24 ± 7.87% | > 14.1 µM | 0.30 | 0.38 | 3.52 | 3.52 | 0.49 µM | 
12 | O=C(Cn1ccc2ccccc21)NCCn1cnc(-c2ccccc2)cc1=O [SR-01000926956] | 100.27 ± 11.90% | 5.36 | 5.36 | 0.74 | 0.37 | 0.0451 µM |  |  |  |  |  |  |  |  |  | Lipophilic Efficiency (logD) (parental HEK cells [4]; HEK Agonist Activity): 2.87; Lipophilic Efficiency (logP) (parental HEK cells [4]; HEK Agonist Activity): 2.87; Averaged Max % Response (±St. Dev.) (parental HEK cells [4]; HEK Agonist Activity): −3.24 ± 9.86%; EC50 (parental HEK cells [4]; [7]): > 14.1 µM
13 | CC(C)C(CC(=O)Cc1cccc2ccccc12)C(=O)Nc1cccc(C#N)c1 (centres unmarked) [SR-05000022531] | 133.92 ± 16.41% | 3.47 | 3.47 | 0.09 | 0.37 | 0.0196 µM |  |  |  |  |  |  |  |  |  | Lipophilic Efficiency (logD) (parental HEK cells [4]; HEK Agonist Activity): 0.61; Lipophilic Efficiency (logP) (parental HEK cells [4]; HEK Agonist Activity): 0.61; Averaged Max % Response (±St. Dev.) (parental HEK cells [4]; HEK Agonist Activity): 1.20 ± 11.04%; EC50 (parental HEK cells [4]; [7]): > 14.1 µM
14 | Cc1ccccc1CN1CCC(O)(c2ccc(Cl)c(C(F)(F)F)c2)CC1 [SR-05000022582] | 135.48 ± 20.60% |  |  |  |  |  | 1.43 | −0.025 | 0.58 ± 18.59% |  | 0.31 | 0.53 | 2.32 | 0.87 | 1.8 µM | EC50 (parental HEK cells [4]; [15]): > 14.1 µM
15 | CC(C)C1CC(=O)[C@@H]2C[C@@H](CC2C(=O)CC2CCOc3ccccc3C2)C2C=CC(=C2)CCC(=O)[C@@H](Cc2ccccc2)NC1=O (some centres unmarked) [SR-05000709044] | 99.08 ± 8.57% | 6.97 | 6.95 | 0.79 | 0.24 | 0.0138 µM |  |  |  |  |  |  |  |  |  | Lipophilic Efficiency (logD) (parental HEK cells [4]; HEK Agonist Activity): 3.96; Lipophilic Efficiency (logP) (parental HEK cells [4]; HEK Agonist Activity): 3.94; Averaged Max % Response (±St. Dev.) (parental HEK cells [4]; HEK Agonist Activity): −2.44 ± 4.17%; EC50 (parental HEK cells [4]; HEK Agonist Activity, parental non-transfected HEK cells): > 14.1 µM
16 | Cc1cccc(NC(=S)NNC(=O)CSCc2cccc3ccccc23)c1 [SR-07000002775] | 88.97 ± 19.06% | 1.77 | 1.77 | 0.76 | 0.35 | 0.205 µM | −0.064 | −0.064 | 2.05 ± 12.71% | > 14.1 µM |  |  |  |  |  | 
17 | CC(C)(C)c1cn2cccc(OCc3ccc(Cl)c(Cl)c3)c2n1 [SR-07000004609] | 87.84 ± 4.08% |  |  |  |  |  | −0.610 | −0.614 | −5.59 ± 4.81% | > 14.1 µM | 0.39 | 0.44 | 0.98 | 0.98 | 0.358 µM | 
